Source: patent US11666562B2, “Ilaprazole for inhibiting the release of enveloped viruses from cells” (Northwestern University, priority 2020, dated 2023)
“Also recorded” adds a separate entry of the source.

Key:
DHPH = assay: FTS assay against unrelated protein DHPH; format: binding, human
From the text: (§1) FIG. 1. Thermal shift data of Tsg101 by lead compound Tenatoprazole (N16). […] (B) Thermal shift data of three human proteins, DHPH, ENO1, and MEK4 not related to Tsg101 by lead compound tenatoprazole. […] (C) The addition of DTT abolishes the Tm shift in the FTS assay, consistent with prazole compounds forming a disulfide bond to Tsg101. Rabe: Rabeprazole, Ila: Ilaprazole, Tenato: tenatoprazole, Panto: pantoprazole, ref: reference.
(§2) This specific binding is consistent with a previous NMR structure in which tenatoprazole forms a covalent disulfide bond to Cys73 in the UEV domain of the protein (5). This disulfide bond formation can be prevented by including the reducing agent DTT in the assay (FIG. 1C). The addition of DTT abolished the Tsg101-UEV Tm shift caused by the prazoles. […]
(§3) Fluorescence thermal shift (FTS) screening to identify small molecule binding to Tsg101-UEV. […] Discovery of small molecule binding to target protein utilizes the observation that ligand binding affects protein thermal stability, and therefore can be detected through a shift in the protein's thermal denaturation (melting) temperature (Tm). […] A fluorescence dye Sypro-Orange (Invitrogen) was used for assay detection. The dye is excited at 473 nm and has a fluorescence emission at 610 nm. […] Fluorescence was detected on a real-time PCR machine CFX384 (Bio-Rad Laboratories).

ENO1 = ENO1 (Homo sapiens, UniProt P06733); assay: FTS assay against unrelated protein ENO1; format: binding
Chain of ENO1 (P06733 whole entry): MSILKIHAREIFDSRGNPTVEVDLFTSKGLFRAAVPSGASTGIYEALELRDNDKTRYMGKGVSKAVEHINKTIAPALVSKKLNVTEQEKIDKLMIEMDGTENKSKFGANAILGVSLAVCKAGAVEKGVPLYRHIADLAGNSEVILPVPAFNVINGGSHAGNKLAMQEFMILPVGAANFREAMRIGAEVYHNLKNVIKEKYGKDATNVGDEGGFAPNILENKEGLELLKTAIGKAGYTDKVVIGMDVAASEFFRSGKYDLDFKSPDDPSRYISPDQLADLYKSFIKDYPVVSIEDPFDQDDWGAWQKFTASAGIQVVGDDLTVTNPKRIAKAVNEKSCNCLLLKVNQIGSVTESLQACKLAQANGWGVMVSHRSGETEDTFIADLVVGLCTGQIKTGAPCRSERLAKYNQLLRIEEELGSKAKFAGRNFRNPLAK
From the text: as §1, §2, §3

HIV-1 = conditions: earlier reports (refs 5, 29); cited from earlier work
HSV-1 = assay: Transmission electron microscopy of HSV-1 infected Vero cells, location of virus particles; format: cell-based, Herpes simplex virus-1 (Kos strain); conditions: HSV-1, 18 μM ilaprazole, 24 h
Description: FIG. 4. Inhibitory effect of Ilaprazole on HSV-2 and HSV-1 production. Vero cells infected with HSV-2 or HSV-1 at MOI of 0.1 and examined by transmission electron microscopy 24 h later. HSV-2 infected untreated cells (A & B) and cells treated with 18 μM ilaprazole (C & D). HSV-1 infected untreated cells (E & F) and cells treated with 18 μM ilaprazole (G & H). Eighty cells where virus particles were observed were examined. In the presence of ilaprazole, we observe no or very few particles in the cytoplasm. Treated cells also have an accumulation of electron dense material and particles associated with them. In untreated HSV-2 infected cells, we observed an average of 120 particles ranging from 28-204 […], and an average of 16 particles ranging from 10-22 in the nucleus. In treated HSV-2 infected cells, we observed 0 particles in the cytoplasm and an average of 31 particles ranging from 9-56 in the nucleus. In untreated HSV-1 infected cells we observed an average of 135 particles ranging from 12-152 in the cytoplasm, and an average of 35 particles ranging from 10-66 in the nucleus. In treated HSV-1 infected cells, we observed 0 particles in the cytoplasm and an average of 43 particles ranging from 15-166 in the nucleus. Arrows point to virus particles. Nuc, nucleus. Cyt, cytoplasm.
We next carried out a transmission electron microscopic examination of cells infected with HSV-2 at a MOI 0.1 in the presence and absence of 18 μM ilaprazole to determine if this drug causes the accumulation of virus particles in the nucleus of cells similar to tenatoprazole. […] In both heavily infected cells (FIGS. 4A & C) and mildly infected cells (FIGS. 4B & D), treatment lead to particles being detected in the nucleus and arrayed along the nuclear membrane but lacking in the cytosol. […] The lower total infectious virus detected in Table 3 (FIG. 7) is consistent with blockage of the virus passaging out of the nucleus into the cytoplasm where membranes are exchanged and virus becomes infectious. […]

293T cells = assay: 293T cell toxicity; format: cell-based; conditions: at drug concentrations that inhibited release of HIV-1
Description: Drug potency and cell toxicity. EC50 calculations were determined by using AAT Bioquest's EC50 calculator. Cell toxicity at different concentrations of drugs as indicated was determine using the Cell Proliferation Reagent WST-1 (Roche Diagnostics) or cellular 96® Aqueous One Reagent viability reagent according to manufacturer's instructions. For 293T cells, the concentration of DMSO was 0.2% or less and assays were carried out with DMEM with 10% serum. Cell toxicity experiments were repeated twice.

Compound | Effect on thermal stability (Tm shift) of DHPH (DHPH) | Effect on thermal stability (Tm shift) of ENO1 (ENO1) | Inhibition of release of infectious HIV-1 from 293T cells (HIV-1) | Average number of virus particles in the nucleus (HSV-1) | Range of number of virus particles in the nucleus (HSV-1) | Virus particles in the cytoplasm (HSV-1) | Toxicity to 293T cells (293T cells)
COc1ccc2[nH]c([S+]([O-])Cc3ncc(C)c(OC)c3C)nc2n1 (stereo not shown) [Tenatoprazole] | negligible; also recorded: did not observe a Tm shift | negligible; also recorded: did not observe a Tm shift | quantitatively inhibit the release | – | – | – | –
COc1ccnc(C[S+]([O-])c2nc3ccc(-n4cccc4)cc3[nH]2)c1C (stereo not shown) [Ilaprazole, 2-[(4-methoxy-3-methylpyridin-2-yl)methylsulfinyl]-6-pyrrol-1-yl-1H-benzimidazole] | – | – | – | 43 particles | 15-166 particles | 0 particles | did not detect toxicity
